Assay results taken from US5478842A, “Ether derivatives having 5-lipoxygenase inhibitory activity” (Zeneca Limited, priority 1993, dated 1995).

Experiments:
[1] = target: T1, 5-LO (LTB4) (Rattus norvegicus, UniProt P12527); test: Test c): in vivo zymosan-induced LTB4 liberation in air pouch of male rats, oral; settings: 3 h; test c)
T1 construct: An in vivo system involving measuring the effects of a test compound administered orally to a group of male rats; from tissue; host or cells: live male rats, zymosan-inflamed subcutaneous air pouch (endogenous enzyme)
T1 sequence (P12527 1-673): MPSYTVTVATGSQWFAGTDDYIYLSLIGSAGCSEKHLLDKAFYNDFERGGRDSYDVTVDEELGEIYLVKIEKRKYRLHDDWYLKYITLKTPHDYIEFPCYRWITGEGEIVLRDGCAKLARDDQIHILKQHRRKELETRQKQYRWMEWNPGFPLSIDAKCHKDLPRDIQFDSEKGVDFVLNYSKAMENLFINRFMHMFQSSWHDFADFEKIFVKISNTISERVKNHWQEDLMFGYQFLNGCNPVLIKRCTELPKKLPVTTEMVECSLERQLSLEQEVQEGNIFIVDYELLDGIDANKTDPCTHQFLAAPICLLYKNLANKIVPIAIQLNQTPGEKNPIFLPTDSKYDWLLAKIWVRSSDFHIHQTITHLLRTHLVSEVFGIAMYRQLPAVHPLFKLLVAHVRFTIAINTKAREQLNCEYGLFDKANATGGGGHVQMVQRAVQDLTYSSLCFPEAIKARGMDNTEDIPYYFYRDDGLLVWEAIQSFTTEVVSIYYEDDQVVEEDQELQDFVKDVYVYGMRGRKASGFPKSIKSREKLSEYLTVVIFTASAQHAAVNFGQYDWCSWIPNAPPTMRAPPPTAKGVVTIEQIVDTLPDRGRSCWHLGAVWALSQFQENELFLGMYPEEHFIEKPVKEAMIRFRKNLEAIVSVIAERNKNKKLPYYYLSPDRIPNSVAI
Description: c) An in vivo system involving measuring the effects of a test compound administered orally to a group of male rats against the liberation of LTB4 induced by zymosan within an air pouch generated within the subcutaneous tissue of the back of the rats. The rats are anaesthetised and air pouches are formed by the injection of sterile air (20 ml). A further injection of air (10 ml) is similarly given after 3 days. At 6 days after the initial air injection the test compound is administered (usually orally as the suspension produced when a solution of the test compound in dimethylsulphoxide is added to hydroxypropylmethylcellulose), followed by the intrapouch injection of zymosan (1 ml of a 1% suspension in physiological saline). After 3 hours the rats are killed, the air pouches are lavaged with physiological saline, and the specific radioimmunoassay described above is used to assay LTB4 in the washings. This test provides an indication of inhibitory effects against 5-L0 in an inflammatory milieu.
Test c): oral ED50 (LTB4) in the range, for example, 0.1-100 mg/kg.

[2] = target: T2, 5-LO (LTB4) (Homo sapiens, UniProt P09917); test: Test a): in vitro assay in heparinised human blood challenged with calcium ionophore A23187, LTB4 by radioimmunoassay; type: cell-based
T2 construct: incubating a test compound with heparinised human blood, prior to challenge with the calcium ionophore A23187; from tissue; host or cells: heparinised human whole blood (endogenous enzyme of blood cells)
T2 sequence (P09917 1-674): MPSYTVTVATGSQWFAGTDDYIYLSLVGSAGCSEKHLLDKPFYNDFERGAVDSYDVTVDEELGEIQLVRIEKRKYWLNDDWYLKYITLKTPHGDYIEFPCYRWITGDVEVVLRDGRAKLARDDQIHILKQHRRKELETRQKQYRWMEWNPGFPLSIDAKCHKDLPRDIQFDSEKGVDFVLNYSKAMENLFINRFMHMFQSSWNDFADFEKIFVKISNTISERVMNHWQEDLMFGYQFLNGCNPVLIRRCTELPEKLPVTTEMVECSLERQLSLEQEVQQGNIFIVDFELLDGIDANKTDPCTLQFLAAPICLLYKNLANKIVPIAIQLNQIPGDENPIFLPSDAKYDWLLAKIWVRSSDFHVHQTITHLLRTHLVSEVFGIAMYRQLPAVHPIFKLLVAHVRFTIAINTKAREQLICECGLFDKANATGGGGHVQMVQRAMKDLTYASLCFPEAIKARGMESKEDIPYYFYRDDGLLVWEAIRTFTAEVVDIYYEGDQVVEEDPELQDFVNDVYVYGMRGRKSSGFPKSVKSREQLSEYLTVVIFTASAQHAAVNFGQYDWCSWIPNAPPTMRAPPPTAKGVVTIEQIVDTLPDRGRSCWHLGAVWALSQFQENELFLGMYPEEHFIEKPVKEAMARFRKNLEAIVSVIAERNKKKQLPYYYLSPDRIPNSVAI
Description: a) An in vitro assay system involving incubating a test compound with heparinised human blood, prior to challenge with the calcium ionophore A23187 and then indirectly measuring the inhibitory effects on 5-L0 by assaying the amount of LTB4 using specific radioimmunoassays described by Carey and Forder (F. Carey and R. A. Forder, Prostaglandins, Leukotrienes Med., 1986, 22, 57; Prostaglandins, 1984, 28, 666; Brit. J. Pharmacol. 1985, 84, 34P) which involve the use of a protein-LTB4 conjugate produced using the procedure of Young et alia (Prostaglandins, 1983, 26(4), 605-613). The effects of a test compound on the enzyme cyclooxygenase (which is involved in the alternative metabolic pathway for arachidonic acid and gives rise to prostaglandins, thromboxanes and related metabolites) may be measured at the same time using the specific radioimmunoassay for thromboxane B2(TxB2) described by Carey and Forder (see above). This test provides an indication of the effects of a test compound against 5-L0 and also cyclooxygenase in the presence of blood cells and proteins. It permits the selectivity of the inhibitory effect on 5-L0 or cyclooxygenase to be assessed.

[3] = tested on: hepatic enzymes; test: Auto-induction on repeat dosing (decrease in C max or AUC); type: in vivo; settings: repeated dosing to a warm-blooded animal
From the text: The result is a decrease on repeat dosing of the quantity of the compound present in the animal's blood stream as shown, for example, by a decrease in the maximum concentration achieved (C max) or, for example, a decrease in the exposure of the animal to the compound as measured by the area under the curve (AUC) of a plot of the concentration of the compound in the blood stream versus time after dosing.

[4] = Crystallinity / physical form; type: physicochemical
From the text: Such non-crystalline compounds are undesirable when consideration is given toward the preparation, purification, analysis, handling and formulation of larger quantities of the compounds.
In another aspect of the invention we have discovered that certain compounds of the invention are crystalline. The crystalline compounds of the invention are those for which a melting point has been given within the Examples provided hereinafter, for example the compounds of Examples 27 and 28. Thus such compounds are of value when their preparation on a larger scale is required. The purification, analysis and handling of a material is facilitated if it is formed in the crystalline state. It is known, for example, that the removal of solvent residues from non-crystalline, oily materials is problematical. In addition the preparation of a pharmaceutical composition comprising a crystalline material is a conventional procedure. The composition may, for example, be in a form suitable for oral use such as a tablet or capsule; or, for example, in a form suitable for administration by inhalation, for example as a finely divided powder or a microcrystalline form. Such options for the formulation of the material are precluded should it be formed in an oily state.

Row | ED50 [1] | IC50 [2] | crystallinity / physical form [4] | SMILES | auto-induction [3]
1 | ~0.2 mg/kg | 50 nM | – | C[C@H]1C[C@@](O)(c2cnc(Sc3ccc4c(c3)CCC(=O)N4C)s2)CCO1 [Example 3, (2S,4R)-4-hydroxy-2-methyl-4-[2-(1-methyl-2-oxo-1,2,3,4-tetrahydro-quinolin-6-ylthio)thiazol-5-yl]tetrahydropyran] | lack to a substantial degree the undesirable property of auto-induction
2 | ~0.05 mg/kg | 20 nM | crystalline | C[C@H]1C[C@@](O)(c2csc(Sc3ccc4c(c3)CC(=O)N4C)c2)CCO1 [Example 28, (2S,4R)-4-hydroxy-2-methyl-4-[2-(1-methyl-2-oxoindolin-5-ylthio)thien-4-yl]tetrahydropyran] | lack to a substantial degree the undesirable property of auto-induction
3 | – | – | crystalline | C[C@H]1C[C@@](O)(c2cnc(Sc3ccc4c(c3)CC(=O)N4C)s2)CCO1 [Example 27, (2S,4R)-4-hydroxy-2-methyl-4-[2-(1-methyl-2-oxoindolin-5-ylthio)thiazol-5-yl]tetrahydropyran] | –
4 | ~0.02 mg/kg | 30 nM | – | C[C@H]1C[C@@](O)(c2csc(Sc3ccc4c(c3)CCC(=O)N4C)c2)CCO1 [Example 5, (2S,4R)-4-hydroxy-2-methyl-4-[2-(1-methyl-2-oxo-1,2,3,4-tetrahydroquinolin-6-ylthio)thien-4-yl]tetrahydropyran] | –

Further lines, the compound ahead of its results:

Row | SMILES | ED50 [1] | IC50 [2] | crystallinity / physical form [4] | auto-induction [3]
5 | C[C@H]1C[C@@](O)(c2cc(F)cc(S(=O)(=O)c3ccc4c(c3)CCC(=O)N4C)c2)CCO1 [Example 2, (2S,4R)-4-[5-fluoro-3-(1-methyl-2-oxo-1,2,3,4-tetrahydroquinolin-6-ylsulphonyl)phenyl]-4-hydroxy-2-methyltetrahydropyran] | ~0.15 mg/kg | 30 nM | – | –
6 | CO[C@]1(c2ccc(Sc3ccc4c(c3)CCC(=S)N4C)s2)CCO[C@@H](C)C1 [(2S,4R)-4-methoxy-2-methyl-4-[5-(1-methyl-2-thioxo-1,2,3,4-tetrahydroquinolin-6-ylthio)thien-2-yl]tetrahydropyran, reference compound] | – | – | viscous oil | –
7 | COC1(c2ccc(Sc3ccc4c(c3)CCC(=O)N4C)s2)CCOCC1 [4-methoxy-4-[5-(1-methyl-2-oxo-1,2,3,4-tetrahydroquinolin-6-ylthio)thien-2-yl]tetrahydropyran, reference compound] | – | – | – | possesses the undesirable property of auto-induction
8 | C[C@H]1C[C@@](O)(c2csc(S(=O)(=O)c3ccc4c(c3)CCC(=O)N4C)c2)CCO1 [Example 9, (2S,4R)-4-hydroxy-2-methyl-4-[2-(1-methyl-2-oxo-1,2,3,4-tetrahydroquinolin-6-ylsulphonyl)thien-4-yl]tetrahydropyran] | – | – | – | lack to a substantial degree the undesirable property of auto-induction
